Drawing on ChEMBL document CHEMBL2040796, “Synthesis and biological activity of both enantiomers of kujigamberol isolated from 85-million-years-old Kuji amber” (Bioorg Med Chem Lett, 2012), this text covers Activity and IC50 for six compounds.

One assay has as its system Saccharomyces cerevisiae. The assay is described as follows: Antimicrobial activity against Saccharomyces cerevisiae harboring zds1delta, erg3delta pdr1delta pdr3delta mutant assessed as clear growth restored zone at 0.5 to 0.0156 ug/spot. It is filed as functional, organism-based.
A further assay relates to HL-60. The experiment in a line: Cytotoxicity against human HL60 cells. It is filed as functional, cell-based.

In general, IC50 refers to the point on the concentration scale where inhibition reaches its midpoint. High values mean lower potency, low ones higher potency.

The source made the active and inactive calls. No cut-off for these calls is given here.

On to `Cc1ccc2c(c1CCC(C)C)CCC[C@@]2(C)CO`, for which the outcome with Saccharomyces cerevisiae and in the assay on HL-60 was Active.

As to `COC(=O)C1(C)CCCc2ccccc21` (configuration not stated), the result with Saccharomyces cerevisiae and in the assay on HL-60 was inactive.

With `Cc1ccc2c(c1CCC(C)C)CCCC2CO` (configuration not stated), the outcome in the assay on Saccharomyces cerevisiae and with HL-60 was Active.

As for `CC1(CO)CCCc2ccccc21` (configuration not stated), the outcome with Saccharomyces cerevisiae and in the assay on HL-60 was inactive.

Turning to `Cc1ccc2c(c1CCC(C)C)CCC[C@]2(C)CO` [KUJIGAMBEROL], the result in the assay on Saccharomyces cerevisiae was Active. Moreover, in the assay with HL-60, half-maximal inhibition (IC50) required 24 µM.

On to `OCC1CCCc2ccccc21` (configuration not stated), for which the result in the assay with Saccharomyces cerevisiae and in the assay with HL-60 was inactive.
